Laboratory results: patent US20200190043A1, “2-[[5-(TRIFLUOROMETHYL)-1,2,4-OXADIAZOL-3-YL]ARYLOXY](THIO)ACETAMIDES FOR COMBATING PHYTOPATHOGENIC FUNGI” (BASF SE, priority 2017, published 2020)

Legend:
Puccinia recondita [1] = assay: Preventative control of brown rust on wheat (glass house trial); assay type: in vivo; conditions: 63 ppm active compound, wheat seedlings, untreated plants 80% diseased leaf area
Procedure: (§1) A mixture was prepared of acetone and/or dimethylsulfoxide and the wetting agent/emulsifier Wettol, which is based on ethoxylated alkylphenoles, in a relation (volume) solvent-emulsifier of 99 to 1 was added to the compound to give a total of 5 ml. Water was then added to a total volume of 100 ml. This stock solution was diluted with the described solvent-emulsifier-water mixture to the given concentration. II.4) Preventative Control of Brown Rust on Wheat Caused by Puccinia recondita The first two developed leaves of pot-grown wheat seedling were sprayed to run-off with an aqueous suspension, containing the concentration of active ingredient or their mixture as described below. The next day the plants were inoculated with spores of Puccinia recondita. To ensure the success the artificial inoculation, the plants were transferred to a humid chamber without light and a relative humidity of 95 to 99% and 20 to 24° C. for 24 hours. Then the trial plants were cultivated for 6 days in a greenhouse chamber at 20 to 24° C. and a relative humidity between 65 and 70%. The extent of fungal attack on the leaves was visually assessed as % diseased leaf area.

Puccinia recondita [2] = assay: Curative control of brown rust on wheat (glass house trial); assay type: in vivo; conditions: 63 ppm active compound, wheat seedlings, untreated plants 80% diseased leaf area
Procedure: as §1, with “concentration. II.3) Curative” for “concentration. II.4) Preventative”, “were dusted” for “were sprayed to run-off with an aqueous suspension, containing the concentration of active ingredient or their mixture as described below. The next day the plants were inoculated”, “hours. The next day the plants were cultivated for 3 days in a greenhouse chamber at 20 to 24° C. and a relative humidity between 65 and 70%. Then the plants were sprayed to run-off with an aqueous suspension, containing the concentration of active ingredient or their mixture as described below. The plants could air-dry.” for “hours.”, “for 8” for “for 6”

CN(C)C(=O)C(F)(F)Oc1ccc(-c2noc(C(F)(F)F)n2)cc1 [I-2]
diseased leaf area (Puccinia recondita [1]): 2%
diseased leaf area (Puccinia recondita [2]): 3%
